Test results from article PMC12040169 (PLOS Biology, 2025).

Test: in vitro
Details: human, hela cells, % viability

Compound	viability at 28.5 h, 10 µM [%]	viability at 28.5 h, 10 µM (bulk resorufin, single well) [%]
CCC1CCCCN1S(=O)(=O)c1ccc(-n2ncc(Cl)c(Cl)c2=O)cc1 (stereo not drawn) [CBK305038]	13.9	
Cn1cnnc1CNC(=O)N1CCN(Cc2cccs2)CC1 [CBK305045]	86.3	
CNS(=O)(=O)c1cc(C(=O)NC2CCCc3ccccc32)n(C)c1 (stereo not drawn) [CBK305048]	103	
CCCCN(C)C(=O)Cn1nc(C)c2ccccc2c1=O [CBK305050]	81.4	
COCCNC(=O)c1cc(-c2ccc(C)s2)nc2c1cnn2C(C)C [CBK305051]	105	
COCCNC(=O)c1cc(-c2cc(C)oc2C)nc2c1cnn2C(C)C [CBK305052]	101	
Cn1ncc2c(=O)n(Cc3noc(-c4ccco4)n3)cnc21 [CBK305053]	97.1	
CC(=O)Nc1cccc(-n2cnnc2SCC2CCCCC2)c1 [CBK305054]	96.2	
Cc1ccc(C(=O)N2CCN(Cc3cc(=O)n4ccsc4n3)CC2)cc1 [CBK305057]	107	
CCNc1nnc(SCCC(=O)N2CCN(c3ccc(F)cc3)CC2)s1 [CBK305058]	100	
CCCn1cc(NC(=O)NC(CC)(CO)c2ccccc2)ccc1=O (stereo not drawn) [CBK305060]	104	
Cn1cc(CNC(=O)Nc2cccc(CN3CCCCC3=O)c2)cn1 [CBK305062]	91.4	
Cc1cc(NC(=O)N2CCN(CCNC(=O)C3CCCC3)CC2)no1 [CBK305064]	100	
Cn1cc(Nc2nc(-c3ccc(CCNS(C)(=O)=O)cc3)cs2)cn1 [CBK305065]	109	
Cc1nn(-c2ccccc2)c(Cl)c1CN1C(=O)NC2(CCCC2)C1=O [CBK305070]	91.9	
Cc1ccc(C)c(NC(=O)Cc2nc(CN3CCNC(=O)C3)cs2)c1 [CBK305071]	96.4	
Cc1ccccc1Nc1nc(N)nc(CN2CCCC(C(F)(F)F)C2)n1 (stereo not drawn) [CBK305073]	105	
Cc1nc(COc2ccc(F)cc2)sc1C(=O)O [CBK305074]	98	
CCOc1ccc2c(c1)CN(CCCc1nc(C)no1)CC2 [CBK305076]	99.2	
COc1ccc(OCc2ncc(C(C)(C)C)o2)c(C(C)=O)c1 [CBK305079]	115	
Cc1nc(C)n(CC2CCCN(Cc3ccc(C#N)cc3)C2)n1 (stereo not drawn) [CBK305082]	83.1	

Compound	viability at 28.5 h, 10 µM [%]	viability at 28.5 h, 10 µM (bulk resorufin, single well) [%]
Cc1nc(C)n(CC2CCCN(Cc3ccccc3C#N)C2)n1 (stereo not drawn) [CBK305085]	98.4	
Cc1cc(CN2CCC(N(C)Cc3nnc(C)n3C)C2)no1 (stereo not drawn) [CBK305088]	96.6	
Cc1csc(CNCc2c(C(C)C)nn(C)c2N(C)C)n1 [CBK305089]	83.7	
CCc1nc(CN2CCOC(c3ccc(F)cc3)C2)cs1 (stereo not drawn) [CBK305090]	89.7	
Cc1ccc(OCC(=O)N2CCCCC2c2nccs2)cc1 (stereo not drawn) [CBK305091]	88.7	
CN(Cc1cnn(C)c1)C(=O)C1CCCN1Cc1ccccn1 (stereo not drawn) [CBK305092]	96	
CC(Cn1cccn1)NCC(=O)N(C)C1(C#N)CCCCC1 (stereo not drawn) [CBK305096]	91.5	
Cc1cnn(C2CN(CC(=O)N3CCc4sccc4C3)C2)c1 [CBK305097]	86.8	
COCCN1CCCC(NC(C)c2ccc(OC)c(F)c2)C1 (stereo not drawn) [CBK305099]	80.9	
CS(=O)(=O)NC1CCN(C2CCc3c(F)cc(F)cc32)C1 (stereo not drawn) [CBK305101]	90.1	
CCC(C)CS(=O)(=O)c1nc(C)c(C)n1CC1CCCO1 (stereo not drawn) [CBK305107]	114	
CCN1CCOC(CNCc2ccc(OCC(N)=O)cc2)C1 (stereo not drawn) [CBK305108]	96.8	
CCOC(=O)c1cnn(C2CCCN(Cc3ccsc3)C2)c1 (stereo not drawn) [CBK305112]	94.9	
CCOC(=O)c1cnn(C2CCCN(Cc3cnnn3C)C2)c1 (stereo not drawn) [CBK305122]	98.5	
COCCn1cc(C(=O)N2CCN(C)CC2C)c2ccccc21 (stereo not drawn) [CBK305123]		102
CCc1onc(C)c1C(=O)NCC1CCCCN1CC(C)C (stereo not drawn) [CBK305124]	106	
CCOC(=O)c1cnn(C2CCCN(Cc3cc[nH]n3)C2)c1 (stereo not drawn) [CBK305125]	87.4	
CC(=O)Nc1cccc(CN(C)C(CCO)c2ccccc2)c1 (stereo not drawn) [CBK305127]	95.8	
CC(C)(C)OC(=O)N1CCCC(NCc2ccccn2)CC1 (stereo not drawn) [CBK305128]	106	
CC(C)C(CNCc1ccc(F)c(Cl)c1)c1ccnn1C (stereo not drawn) [CBK305130]	82.9	
CCC(NC1CCc2nc(COC)nn2C1)c1ccccc1O (stereo not drawn) [CBK305132]	92.1	

Compound	viability at 28.5 h, 10 µM [%]	viability at 28.5 h, 10 µM (bulk resorufin, single well) [%]
COc1cc(OC)cc(C(=O)N(CCC#N)Cc2ccco2)c1 [CBK305133]	96.3	
CCN(CC)C(=O)NC(C)c1cccc(S(=O)(=O)NC)c1 (stereo not drawn) [CBK305134]	94.4	
CC(=O)Nc1cccc(CN2CCCC2CC(O)c2ccccc2)c1 (stereo not drawn) [CBK305136]	104	
Cc1nc(S(=O)(=O)CCn2cccn2)n(C2CCCC2)c1C [CBK305138]	89	
Cc1cc(NC(=O)CN2CCCC2CC(O)c2ccccc2)no1 (stereo not drawn) [CBK305139]	88.8	
O=C(c1cccc2ncccc12)N1CCN(CC2CCOC2)CC1 (stereo not drawn) [CBK305140]	94.3	
Cc1nc(S(=O)(=O)CCn2cccn2)n(CC2CCCO2)c1C (stereo not drawn) [CBK305141]	96.6	
CCn1ncc2c1CCCC2NC1CCN(c2ccccc2)C1=O (stereo not drawn) [CBK305144]	93.6	
O=C(NCCCN1CCCCC1)C1CC(=O)N(Cc2ccco2)C1 (stereo not drawn) [CBK305145]	93.1	
COc1ccc(C(=O)N(C)Cc2cnn(C)c2)cc1Br [CBK305149]	84.8	
O=C(NCCN1CCCCC1)C1CC(=O)N(Cc2ccccc2)C1 (stereo not drawn) [CBK305150]	96.5	
CC1CN(CCNCc2cn(C)nc2-c2cccnc2)CC(C)O1 (stereo not drawn) [CBK305151]	110	
Cc1cc(C)nc(CCNCc2c(C(C)C)nn(C)c2N(C)C)n1 [CBK305159]	112	
Cc1nc(CN2CCCC(NCc3ccc4ccccc4c3)C2)no1 (stereo not drawn) [CBK305160]	96.5	
Cc1c(C(=O)N(C)CC(C)C)nnn1-c1ccc2ncccc2c1 [CBK305161]	102	
CC(=O)Nc1cccc(CN2CCCC2CN2CCCC2CO)c1 (stereo not drawn) [CBK305163]	98.9	
Cc1cccc(CN2CCC(N(C)Cc3nnc(C4CC4)n3C)C2)c1 (stereo not drawn) [CBK305165]	88.5	
Cc1cccn2cc(CCNC(=O)CN3Cc4ccccc4C3)nc12 [CBK305166]	101	
OC(COCc1ccco1)CN1CCc2sccc2C1C1CC1 (stereo not drawn) [CBK305167]	119	
CCC1CN(C(C)=O)CCC1NCc1ccc(OCC(N)=O)cc1 (stereo not drawn) [CBK305168]	102	
CC1CCC(N(Cc2nnc(C(C)C)o2)CC2CCCO2)CC1 (stereo not drawn) [CBK305169]	89.7	

Compound	viability at 28.5 h, 10 µM [%]	viability at 28.5 h, 10 µM (bulk resorufin, single well) [%]
CN(C(=O)Cn1cccn1)c1nc2c(s1)CC(c1ccccc1)CC2 (stereo not drawn) [CBK305173]	102	
Cc1nn(C)c2ncc(S(=O)(=O)Nc3ccc(F)cn3)cc12 [CBK305175]	95.1	
CCC(C)N(C)CCNC(=O)Nc1ccc(F)c(-n2nnnc2C)c1 (stereo not drawn) [CBK305176]	101	
Cn1cc(N2CCCC(NC(=O)Nc3cccc(C#N)c3)C2)cn1 (stereo not drawn) [CBK305179]	91.3	
c1cn2cnnc2c(N2CCc3sccc3C2)n1 [CBK305180]	96.6	
Cc1ccccc1Nc1nc(N)nc(CN2CCOC3CCCC32)n1 (stereo not drawn) [CBK305181]	97.6	
Cn1cc(N2CCC(NC(=O)c3ccc(C#N)cc3)C2=O)cn1 (stereo not drawn) [CBK305182]	94	
COC(=O)c1ncn(CC(=O)N2CCCCCC2)n1 [CBK305184]	98.9	
CCC(NC(=O)c1cn(CCOC)c2ccccc12)c1ccncc1 (stereo not drawn) [CBK305186]		95.7
O=C(Cn1nc2n(c1=O)CCCCC2)NCC(O)c1ccc(F)cc1 (stereo not drawn) [CBK305187]	95.6	
CC(C)c1ccsc1C(=O)N1CCC2(C1)NC(=O)NC2=O (stereo not drawn) [CBK305188]	87.1	
c1csc(N2CCCN(c3nccn4cnnc34)CC2)n1 [CBK305190]	82.4	
CC(C)Oc1ncc(C(=O)NCCCC(=O)O)cc1Cl [CBK305192]	107	
Cn1ncc2c1CCCC2NC(=O)NCc1ccc(C#N)cc1F (stereo not drawn) [CBK305193]	85.4	
Cc1nn(C)c(C)c1CCC(=O)NCC(C)Oc1ccccc1F (stereo not drawn) [CBK305194]	94.3	
CC(=O)Nc1ccc(Cc2nc(C3CC3)no2)cc1 [CBK305197]	92.1	
O=C(NCC1(O)CCSCC1)c1cc2ccccc2[nH]1 [CBK305199]	94.9	
CCn1ncc2c1CCCC2NC1CCN(c2ccc(C#N)cc2)C1=O (stereo not drawn) [CBK305200]	96.8	
CC(C)c1noc(C(C)N2CCN(Cc3noc(C(C)(C)C)n3)CC2)n1 (stereo not drawn) [CBK305202]	84.4	
CC(C)(C)c1n[nH]c(C2CN(C(=O)CCc3cscn3)CCO2)n1 (stereo not drawn) [CBK305205]	89.7	
CCN(CC)C1CCN(C(=O)Nc2cc(NC(C)=O)ccc2F)C1 (stereo not drawn) [CBK305207]	88.7	
